From paper PMC8364938 (MicrobiologyOpen, 2021)

Tested on: 9His-cgLAAO1
Experiment: coupled peroxidase/o-dianisidine assay, Hanes-Woolf
Format: biochemical, Colletotrichum gloeosporioides
Conditions: 50 mM TEA/HCl pH 7.0, 30 °C

SMILES	Km
CC(C)C[C@H](N)C(=O)O [L-leucine]	1200 ± 200 µM
COC(=O)[C@@H](N)CC(C)C [L-leucine methyl ester]	12900 ± 300 µM
N[C@@H](Cc1ccccc1)C(=O)O [L-phenylalanine]	320 ± 30 µM

Results, then the molecule that gave them:

Km	SMILES
760 ± 100 µM	NC(=O)CC[C@H](N)C(=O)O [L-glutamine]
1060 ± 500 µM	CSCC[C@H](N)C(=O)O [L-methionine]
